The results in this text go back to PubChem BioAssay (NCI).

Each structure is given as a SMILES string.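 In this assay, cells in 96-well plates receive the compound at five concentrations for 48 hours. Endpoints are linearly interpolated between the surrounding concentrations. GI50 = concentration required for 50% inhibition of growth. TGI: total growth inhibition.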

Among the test systems are 786-0 renal; HCT-116 colon; HOP-62 NSCLC; MDA-MB-231 breast; MDA-N; OVCAR-3 ovarian; PC-3 prostate; SK-MEL-28 melanoma; SW-620 colon; UACC-257 melanoma.
Common to all, as to assay: NCI anticancer screen, dose series, 48 h

For `C=C1C(=O)OC2C1C(OC(=O)/C(C)=C/C)CC1(C)C(=O)CCC(=C)C21` (stereo not given), the TGI in the assay on 786-0 renal was determined as 20.9 µM; in the assay on HCT-116 colon it was 31.2 µM; in the assay on HOP-62 NSCLC, 30.5 µM; with MDA-MB-231 breast it was 38.4 µM; in the assay with MDA-N, 18.1 µM; in the assay with OVCAR-3 ovarian it was 19.7 µM. Besides, the TGI in the assay on PC-3 prostate is 22.9 µM; in the assay on SK-MEL-28 melanoma it was greater than 42.8 µM; with SW-620 colon, 23.4 µM; in the assay on UACC-257 melanoma, 28.5 µM.
Take `Oc1cc2cccc[n+]2c2cccc(Cl)c12`: the GI50 was 55.7 µM with HCT-116 colon; 91.5 µM with MDA-MB-231 breast; 16.9 µM in the assay with MDA-N; 21.8 µM with SK-MEL-28 melanoma; 32.8 µM in the assay on SW-620 colon; 21.7 µM with UACC-257 melanoma. Moreover, the results for the TGI with MDA-N and with UACC-257 melanoma were 33.5 µM and 48.4 µM, respectively.
As to `[C-]#[O+].[C-]#[O+].[Ir].[O-]c1cccc2cccnc12`, the GI50 in the assay on SK-MEL-28 melanoma, with SW-620 colon and with UACC-257 melanoma was greater than 100 µM in each case. Besides, the TGI in the assay with SK-MEL-28 melanoma, with SW-620 colon and with UACC-257 melanoma was greater than 100 µM in each case.
Take `CC(C)C(N=Cc1ccccc1O)C(=O)O` (stereo not given): the TGI with 786-0 renal, in the assay on HCT-116 colon, in the assay on HOP-62 NSCLC, in the assay with MDA-MB-231 breast, with MDA-N and with OVCAR-3 ovarian was greater than 100 µM each time. In addition, the TGI in the assay on PC-3 prostate, in the assay on SK-MEL-28 melanoma, in the assay on SW-620 colon and in the assay with UACC-257 melanoma was greater than 100 µM each time.
For the compound `Fc1ccc(-c2ccc(-c3nnc(-c4cc(F)c(Cl)cc4Cl)o3)o2)cc1Cl`, the GI50 is 29.7 µM with MDA-MB-231 breast; 21900 nM in the assay with OVCAR-3 ovarian; 36.9 µM with PC-3 prostate; 24.9 µM in the assay with SK-MEL-28 melanoma; 31.9 µM with SW-620 colon; 46.1 µM with UACC-257 melanoma. In addition, the TGI in the assay on MDA-MB-231 breast was greater than 100 µM; with OVCAR-3 ovarian, 72.5 µM; in the assay with PC-3 prostate, greater than 100 µM; in the assay with SK-MEL-28 melanoma, 68.2 µM; in the assay on SW-620 colon, 98.3 µM; in the assay on UACC-257 melanoma, greater than 100 µM.
With `O=C(/C=C/c1ccc(O)cc1)NCCc1ccc(O)cc1`, the TGI with 786-0 renal, in the assay with HCT-116 colon, with HOP-62 NSCLC, in the assay on MDA-MB-231 breast, in the assay on MDA-N and in the assay on OVCAR-3 ovarian was greater than 12.5 µM throughout. In addition, the TGI in the assay with PC-3 prostate, with SK-MEL-28 melanoma, in the assay on SW-620 colon and in the assay with UACC-257 melanoma was greater than 12.5 µM throughout.
As for `c1ccc2sc(C3(N4CCCCC4)CCCC3)cc2c1`, the TGI in the assay on 786-0 renal amounted to 28.9 µM; with HCT-116 colon it was 19.9 µM; in the assay on HOP-62 NSCLC, 28.8 µM; with MDA-N, 35.1 µM; in the assay with OVCAR-3 ovarian it was 21.8 µM; in the assay on SK-MEL-28 melanoma it was 28.7 µM. Besides, the TGI in the assay on SW-620 colon is 24.1 µM; in the assay on UACC-257 melanoma, 29.7 µM.
`O=S(=O)(c1ccc(I)cc1)N(c1ccccc1)S(=O)(=O)C(F)(F)C(F)(F)C(F)(F)C(F)(F)F`: the TGI in the assay with 786-0 renal is greater than 100 µM; in the assay with HCT-116 colon, 44.6 µM; in the assay on HOP-62 NSCLC, 66.6 µM; with MDA-MB-231 breast, greater than 100 µM; in the assay with MDA-N, greater than 100 µM; in the assay with OVCAR-3 ovarian it was 50.9 µM. For the same compound, the TGI in the assay with PC-3 prostate, in the assay with SK-MEL-28 melanoma, in the assay on SW-620 colon and in the assay on UACC-257 melanoma was greater than 100 µM each time.
For the compound `C[N+]1(C)CCC(C#N)(c2ccccc2)CC1`, the TGI with 786-0 renal, in the assay with HCT-116 colon, with HOP-62 NSCLC, in the assay with MDA-N, with SK-MEL-28 melanoma and with SW-620 colon was greater than 100 µM in each case. In addition, in the assay on UACC-257 melanoma, the TGI was greater than 100 µM.
For `CC(=O)OCC1OC(O[C@@H]2c3c(O)c4c(c(O)c3C3=C(NN(c5ccc([N+](=O)[O-])cc5[N+](=O)[O-])[Se]3=O)[C@@]2(C)O)C(=O)c2ccccc2C4=O)C(OC(C)=O)C(OC(C)=O)C1OC(C)=O` (stereo not given in full), the TGI with 786-0 renal stood at 0.296 µM; in the assay on HCT-116 colon, 0.295 µM; in the assay with HOP-62 NSCLC it was 0.714 µM; in the assay with MDA-MB-231 breast, 1.48 µM; in the assay with MDA-N, 0.753 µM; with OVCAR-3 ovarian it was 0.336 µM. Moreover, the TGI in the assay on PC-3 prostate came to 1.02 µM; in the assay with SK-MEL-28 melanoma it was 1.02 µM; with SW-620 colon, 0.339 µM; in the assay with UACC-257 melanoma, 1.49 µM.
`O=S(O)c1cc(Cl)cc(Cl)c1O`: the TGI in the assay on HCT-116 colon, in the assay with HOP-62 NSCLC, in the assay with OVCAR-3 ovarian, in the assay with SK-MEL-28 melanoma and in the assay with UACC-257 melanoma was greater than 100 µM each time.
`COc1ccc(SC(C)(SC)c2ccccn2)c(OC)n1` (stereo not given): the TGI in the assay with 786-0 renal, in the assay with HCT-116 colon, in the assay with HOP-62 NSCLC, in the assay on MDA-MB-231 breast, with MDA-N and in the assay on OVCAR-3 ovarian was greater than 100 µM each time. Moreover, the TGI with PC-3 prostate, in the assay with SK-MEL-28 melanoma, in the assay on SW-620 colon and in the assay with UACC-257 melanoma was greater than 100 µM throughout.
For `O=C1/C(=C\c2ccc(-c3ccc(Cl)cc3Cl)o2)SC2N=C(COc3ccc(Cl)cc3)NN12` (stereo not given), the TGI in the assay with 786-0 renal, in the assay with HCT-116 colon, with HOP-62 NSCLC, with MDA-MB-231 breast, in the assay on MDA-N and with OVCAR-3 ovarian was greater than 100 µM in each case. Also, the TGI in the assay with PC-3 prostate was greater than 100 µM; in the assay with SK-MEL-28 melanoma it was greater than 100 µM; with SW-620 colon it was greater than 100 µM; with UACC-257 melanoma, 74.4 µM.
With `N#C/C=C1\C=CC(O)C(O)C1OC1OC(CO)C(O)C(O)C1O` (stereo not given), the TGI with 786-0 renal, in the assay with HCT-116 colon, with HOP-62 NSCLC, in the assay on MDA-MB-231 breast, in the assay on MDA-N and in the assay on OVCAR-3 ovarian was greater than 100 µM in each case. Moreover, the TGI in the assay on PC-3 prostate, in the assay with SK-MEL-28 melanoma, in the assay on SW-620 colon and in the assay on UACC-257 melanoma was greater than 100 µM throughout.
With `S=C1N(c2ccc(Cl)cc2)C2=C(N=Nc3ccccc3)C(=Nc3ccccc3S2)N1c1ccccn1`, the TGI worked out at 28.1 µM in the assay with 786-0 renal; 27.1 µM in the assay on HCT-116 colon; 33.7 µM in the assay on HOP-62 NSCLC; 25.4 µM in the assay on MDA-MB-231 breast; 30.1 µM with MDA-N; 27.2 µM in the assay with OVCAR-3 ovarian. Moreover, the TGI in the assay with PC-3 prostate is 27.6 µM; in the assay on SK-MEL-28 melanoma, 29.4 µM; with SW-620 colon it was 34.9 µM; with UACC-257 melanoma, 30.4 µM.
On to `CN(C)Cc1ccc(C(=O)Nc2ccc3ncnc(Nc4ccc(Oc5cccc(F)c5)c(Cl)c4)c3c2)cc1`, for which the GI50 with MDA-MB-231 breast is 1.65 µM; with OVCAR-3 ovarian, 1500 nM; in the assay with SK-MEL-28 melanoma it was 1.68 µM; with SW-620 colon, 1.76 µM. The TGI with MDA-MB-231 breast stood at 3.12 µM; in the assay with OVCAR-3 ovarian, 2.92 µM; in the assay with SK-MEL-28 melanoma, 3.09 µM; in the assay with SW-620 colon, 3.31 µM.
Take `O=S(=O)(O)c1c(N=Nc2c(O)ccc3ccccc23)ccc2ccccc12`: the TGI in the assay on 786-0 renal, with HCT-116 colon, in the assay with HOP-62 NSCLC, with MDA-MB-231 breast, in the assay on MDA-N and in the assay with OVCAR-3 ovarian was greater than 100 µM throughout. Also, the TGI in the assay with PC-3 prostate, in the assay on SK-MEL-28 melanoma, in the assay with SW-620 colon and in the assay on UACC-257 melanoma was greater than 100 µM in each case.
As to `Nc1nc(SCc2ccccc2)c2ncn(Cc3ccccc3)c2n1`, the TGI in the assay on 786-0 renal, in the assay on HCT-116 colon, with HOP-62 NSCLC, in the assay on MDA-MB-231 breast, with MDA-N and with OVCAR-3 ovarian was greater than 100 µM each time. Moreover, the TGI in the assay on PC-3 prostate, in the assay with SK-MEL-28 melanoma, with SW-620 colon and in the assay on UACC-257 melanoma was greater than 100 µM in each case.
Turning to `COC(=O)C1=CC[C@@H]2C(C(=O)O)=CO[C@@H](OC3OC(CO)C(O)C(O)C3O)[C@H]12` (stereo not given in full), the TGI with HCT-116 colon, in the assay with HOP-62 NSCLC, with OVCAR-3 ovarian, in the assay with SK-MEL-28 melanoma, in the assay with SW-620 colon and with UACC-257 melanoma was greater than 300 µM each time.
For `O=C1c2ccccc2-c2ccc(N=[N+]([O-])c3ccc4c(c3)C(=O)c3ccccc3-4)cc21`, the TGI in the assay with 786-0 renal, in the assay on HCT-116 colon, in the assay with HOP-62 NSCLC, with MDA-MB-231 breast, in the assay with MDA-N and with OVCAR-3 ovarian was greater than 100 µM in each case. Moreover, the TGI in the assay with PC-3 prostate, with SK-MEL-28 melanoma, with SW-620 colon and in the assay on UACC-257 melanoma was greater than 100 µM throughout.
Regarding `CC1(C)COC(/C=C/C2=NC(C)(C)CO2)=N1`, the TGI in the assay with HCT-116 colon came to 25.9 µM; in the assay with HOP-62 NSCLC, 55.2 µM; in the assay on MDA-MB-231 breast it was 44.2 µM; in the assay with MDA-N it was 48.7 µM; in the assay with OVCAR-3 ovarian it was 30.8 µM; in the assay on PC-3 prostate, 51.7 µM. Further, the TGI is 38.1 µM in the assay on SK-MEL-28 melanoma, 26.9 µM in the assay on SW-620 colon and greater than 100 µM in the assay on UACC-257 melanoma.
For the compound `S=C(Nc1ccc(Cl)cc1)Nc1ccc(Cl)cc1` (tested in a mixture with another compound), the GI50 in the assay on HCT-116 colon is 1.46 µM; in the assay with HOP-62 NSCLC, 2750 nM; in the assay on MDA-MB-231 breast, 1.86 µM; in the assay on OVCAR-3 ovarian it was 1690 nM; in the assay with PC-3 prostate, 1.71 µM; in the assay with SK-MEL-28 melanoma, 3.46 µM. In addition, the results for the GI50 in the assay on SW-620 colon and with UACC-257 melanoma were 2.99 µM and 2.65 µM, respectively. In addition, the TGI in the assay with HCT-116 colon is 3.07 µM; with HOP-62 NSCLC, 7.2 µM; in the assay with MDA-MB-231 breast it was 3.68 µM; in the assay with OVCAR-3 ovarian, 4.48 µM; with PC-3 prostate, 6.59 µM; with SK-MEL-28 melanoma, 25.5 µM. The TGI with SW-620 colon was determined as 13.8 µM; with UACC-257 melanoma, 6.23 µM.
